According to paper PMC10525585, “Evaluation of the Antibacterial Effect of Aurone-Derived Triazoles on Staphylococcus aureus” (Antibiotics, 2023):

Experiments:
pre-formed MSSA biofilms = assay: Biofilm assay (BacLight live/dead confocal imaging); type: cell-based, Staphylococcus aureus; conditions: for Fold Change in Dead Cells / Fold Change in Total Cells / Percent Change in Dead Cells / Percent Change in Total Cells: versus mock-treated control; for Dead Cell Count / Living Cell Count / Total Cell Count: 48 h biofilm treated 24 h with 100 µM AT; for Dead Cell Count: control 96; for Living Cell Count: control 2124; for Total Cell Count: control 2220
Description: To prepare AT-treated cultures, overnight bacterial cultures were used (adjusted to 1 × 10^8 CFU/mL) in BHI medium to grow biofilm in 35 mm MatTEK dishes with a 20 mm glass bottom well by adding 1500 µL of overnight bacteria per dish. The dishes were incubated at 37 °C in a humidified incubator for 48 h. The old media was refreshed by adding 1500 µL of BHI for the control, or the AT mixture (15 µL of AT stock with 1485 µL BHI to achieve 100 µM AT concentration), or DMSO mixture (15 µL DMSO with 1485 µL BHI) for negative control. The dishes were then incubated in a humidified incubator for an additional 24 h at 37 °C. The media was removed, and cells were washed twice with 500 µL PBS, followed by the addition of 50 µL BacLight^TM with 250 µL PBS for 15 min. Biofilms were imaged using a Zeiss AxioObserver microscope with an LSM700 confocal module (Carl Zeiss Microscopy, White Plains, NY, USA). To assess biofilm disruption, Fiji software version 2.14.0 was used. Initially, raw microscope images were imported, separating the color channels, as dead cells were stained fluorescent red and living cells were stained green. To allow particle counts, the color saturation threshold was set using the RenyiEntropy option to clear the images from potential noise. This step was followed by watershed separation, which separates potentially overlapping cells, and then particle analysis was completed using the 0.5–1.5 micron size as a guide. Biofilm disruption was quantified both by reductions in total bacterial cell numbers and increases in dead cell numbers.

MSSA = assay: Growth curve assay (Bioscreen C, 48 h); type: cell-based, Staphylococcus aureus; conditions: 48 h growth curve; for strength of growth inhibition: concentrations closer to the IC50 values (5–25 µM)
Description: (§1) This suspension was diluted 1:20 in TSB.
(§2) For the growth curve assay, honeycomb plates (Growth Curves USA, Piscataway, NJ, USA) were used with TSB as the growth medium. Using bacterial cultures as described above, growth curve measurements were carried out in quintuplicates. For positive growth controls, wells with 10 µL of bacteria mixed into 90 µL of TSB were used. For quintuplicate treatment wells, 4-fold dilutions of AT compounds were used such that AT concentrations of 100, 25, 6.25, and 1.56 µM were tested. A 10 µL inoculum of bacteria prepared as described above was added to each dilution of the ATs. The growth in each well was measured in 15 min intervals for 48 h at 37 °C in the Bioscreen C instrument. The results were processed and analyzed with Microsoft Excel (version 2201) and GraphPad Prism 9.3.1 software (GraphPad by Dotmatics, Boston, MA, USA).

MRSA = assay: Growth curve assay (Bioscreen C, 48 h); type: cell-based, Staphylococcus aureus; conditions: 48 h growth curve; for strength of growth inhibition: concentrations closer to the IC50 values (5–25 µM)
Description: as §1, §2

Hemolysis assay = type: cell-based, human; conditions: human, human red blood cells (0.5% final suspension, single donor), 1 h, 37 °C, read-out: Hemolysis by AT Compounds (%)
Description: (§3) A single donor-specific blood sample was acquired from Innovative Research Inc. (Novi, MI, USA) for the assay (donor#:1WB3ALS40ML-36517). A volume of 1–2 mL of the human red blood cells (hRBCs in Alsevier’s solution) was mixed with 8–10 mL of Phosphate-Buffered Saline (PBS) in a 15 mL centrifuge tube to pellet by centrifugation at 1400× g in a swinging bucket centrifuge for 10 min. The supernatant was then removed, and the cells were washed with 10 mL of PBS two additional times. The cells were resuspended in PBS to achieve a final 1% solution of hRBCs.
(§4) The wells of a 96-well U-bottom plate that contained AT compounds were prefilled with 50 µL of PBS. A 2-fold dilution of AT compounds was prepared. For each triplicate, an initial AT dilution was prepared using 6 µL of AT stock solution in 144 µL of PBS. This initial mixture was diluted 2-fold on a 96-well plate following the method described above for a final volume of 50 µL of diluted AT in each well. As a final step, 50 µL of the 1% hRBC solution was added to each well, except the blank wells. PBS and hRBCs were used for negative control, whereas hRBCs with 1% and 0.1% Triton-X100 were used as positive controls. After 1 h of incubation at 37 °C in a humidified incubator, the plate was centrifuged at 1000 rpm for 10 min in a Thermo Sorvall Legend XTR centrifuge with a TX-750 swinging bucket rotor (Thermo Fisher Scientific, Waltham, MA, USA) to pellet intact cells. After centrifugation, 50 µL of supernatant was transferred from each well into a new 96-well U-bottom plate and hemolysis of the hRBCs detected in a plate-reader for absorbance at 405 nm. Hemolytic activity for all concentrations of the ATs was computed following this formula:(1) % hemolysis=OD405nmsample− OD405nmnegative control/OD405nmpositivecontrol[…]

human red blood cells = assay: Hemolysis assay; type: cell-based; conditions: overall statement
Description: as §3, §4

Row | SMILES | Fold Change in Dead Cells (pre-formed MSSA biofilms; 100 µM AT, 24 h) | Fold Change in Total Cells (pre-formed MSSA biofilms; 100 µM AT, 24 h) | Percent Change in Dead Cells (pre-formed MSSA biofilms; 100 µM AT, 24 h) [%] | Percent Change in Total Cells (pre-formed MSSA biofilms; 100 µM AT, 24 h) [%] | Dead Cell Count (pre-formed MSSA biofilms) | Living Cell Count (pre-formed MSSA biofilms) | Total Cell Count (pre-formed MSSA biofilms) | strength of growth inhibition (MSSA) | strength of growth inhibition (MRSA) | hemolysis at 1 h, 3.125 µM (Hemolysis assay) [%] | hemolysis at 1 h, 6.25 µM (Hemolysis assay) [%] | hemolysis at 1 h, 12.5 µM (Hemolysis assay) [%] | hemolysis at 1 h, 25 µM (Hemolysis assay) [%] | hemolysis at 1 h, 50 µM (Hemolysis assay) [%] | hemolysis at 1 h, 100 µM (Hemolysis assay) [%] | hemolytic activity for human erythrocytes (human red blood cells) | disruption of MSSA biofilms (pre-formed MSSA biofilms; pre-formed biofilm, 100 µM AT, 24 h) | blocking of bacterial growth (MSSA; concentrations below 10 µM) | relative inhibition of MRSA growth (MRSA; 0–100 µM, among the four ATs) | blocking of bacterial growth (MRSA; concentrations below 10 µM)
1 | O=C(c1ccccc1O)c1n[nH]nc1-c1ccc(Cl)cc1 [AT106] | -0.75 | -0.8914 | -75.00 | -89.14 | 24 | 217 | 241 | weaker inhibitors | weaker inhibitors | 0.6 | -0.1 | 1.2 | 1.2 | -0.3 | 1.1 | not hemolytic |  |  |  | 
2 | O=C(c1ccccc1O)c1n[nH]nc1-c1cccc(C(F)(F)F)c1 [AT116] | 2.417 | -0.4212 | 241.67 | -42.12 | 328 | 957 | 1285 | weaker inhibitors | weaker inhibitors | 0.8 | -0.7 | 2.3 | 2.1 | 2.6 | 3.5 | not hemolytic | successfully disrupted MSSA biofilms |  |  | 
3 | O=C(c1ccccc1O)c1n[nH]nc1-c1ccc(Br)s1 [AT137] | -0.8021 | -0.9347 | -80.21 | -93.47 | 19 | 126 | 145 | strong inhibitors | strong inhibitors | -2.6 | -0.5 | -0.8 | 2.7 | 1.4 | 1.8 | not hemolytic |  | successful in blocking bacterial growth | greatest inhibition | successful in blocking bacterial growth
